Measured values as given in ChEMBL document CHEMBL1126009, “Synthesis and biological activities of fatty acid conjugates of a cyclic lactam alpha-melanotropin” (1992).

Assays:
lizard [1] = assay: […] activity in lizard skin (10e-9 M) bioassay, compared to the half-maximal effective dose of alpha-MSH (1.0); response is prolonged (+).; assay type: functional
S91 [2] = assay: […] potency was measured as the minimal effective dose required to elicit the response relative to alpha-MSH(1.0) by using melanoma tyrosinase bioassay; response is prolonged (+).range =10-100; assay type: functional, Mus musculus
S91 [3] = assay: […] potency was measured as the minimal effective dose required to elicit the response relative to alpha-MSH(1.0) by using melanoma tyrosinase bioassay; response is prolonged (+).range=10-100; assay type: functional, Mus musculus
lizard [4] = assay: […] activity in lizard skin (10e-9 M) bioassay, compared to the half-maximal effective dose of alpha-MSH (1.0); response is not prolonged (-).; assay type: functional
S91 [5] = assay: […] potency was measured as the minimal effective dose required to elicit the response relative to alpha-MSH(1.0) by using melanoma tyrosinase bioassay; response is somewhat prolonged (+/-).; assay type: functional, Mus musculus

## CCCCCC(=O)N[C@H]1CC(=O)NCCCC[C@@H](C(N)=O)NC(=O)[C@H](Cc2c[nH]c3ccccc23)NC(=O)[C@@H](CCCN=C(N)N)NC(=O)[C@H](Cc2ccccc2)NC(=O)[C@@H](Cc2c[nH]cn2)NC1=O
Lizard [1]
  Melanotropic activity: 1

## CCCCCCCCCC(=O)NC1CC(=O)NCCCC[C@@H](C(N)=O)NC(=O)[C@H](Cc2c[nH]c3ccccc23)NC(=O)[C@@H](CCCN=C(N)N)NC(=O)[C@H](Cc2ccccc2)NC(=O)[C@@H](Cc2c[nH]cn2)NC1=O (some centres not stated)
Lizard [1]
  Melanotropic activity: 1

## CCCCCCCCCCCCCC(=O)NC1CC(=O)NCCCC[C@@H](C(N)=O)NC(=O)[C@H](Cc2c[nH]c3ccccc23)NC(=O)[C@@H](CCCN=C(N)N)NC(=O)[C@H](Cc2ccccc2)NC(=O)[C@@H](Cc2c[nH]cn2)NC1=O (some centres not stated)
Lizard [1]
  Melanotropic activity: 0.01

## CCCCCCCCCCCCCC(=O)N[C@H]1CC(=O)NCCCC[C@@H](C(N)=O)NC(=O)[C@H](Cc2c[nH]c3ccccc23)NC(=O)[C@H](CCCN=C(N)N)NC(=O)[C@@H](Cc2ccccc2)NC(=O)[C@H](Cc2c[nH]cn2)NC1=O
S91 [2]
  Melanotropic potency: 100

## CCCCCCCCCCCCCCCC(=O)N[C@H]1CC(=O)NCCCC[C@@H](C(N)=O)NC(=O)[C@H](Cc2c[nH]c3ccccc23)NC(=O)[C@H](CCCN=C(N)N)NC(=O)[C@@H](Cc2ccccc2)NC(=O)[C@H](Cc2c[nH]cn2)NC1=O
S91 [3]
  Melanotropic potency: 100

## CCCCCCCCCCCCCCCC(=O)NC1CC(=O)NCCCC[C@@H](C(N)=O)NC(=O)[C@H](Cc2c[nH]c3ccccc23)NC(=O)[C@@H](CCCN=C(N)N)NC(=O)[C@H](Cc2ccccc2)NC(=O)[C@@H](Cc2c[nH]cn2)NC1=O (some centres not stated)
Lizard [1]
  Melanotropic activity: 0.01

## CCCCCCCCCC(=O)N[C@H]1CC(=O)NCCCC[C@@H](C(N)=O)NC(=O)[C@H](Cc2c[nH]c3ccccc23)NC(=O)[C@H](CCCN=C(N)N)NC(=O)[C@@H](Cc2ccccc2)NC(=O)[C@H](Cc2c[nH]cn2)NC1=O
S91 [3]
  Melanotropic potency: 100

## CCCCCC(=O)N[C@H]1CC(=O)NCCCC[C@@H](C(N)=O)NC(=O)[C@H](Cc2c[nH]c3ccccc23)NC(=O)[C@H](CCCN=C(N)N)NC(=O)[C@@H](Cc2ccccc2)NC(=O)[C@H](Cc2c[nH]cn2)NC1=O
S91 [3]
  Melanotropic potency: 100

## NC(=O)[C@@H]1CCCCNC(=O)C[C@H](N)C(=O)N[C@H](Cc2c[nH]cn2)C(=O)N[C@H](Cc2ccccc2)C(=O)N[C@H](CCCN=C(N)N)C(=O)N[C@@H](Cc2c[nH]c3ccccc23)C(=O)N1
Lizard [4]
  Melanotropic activity: 0.2

## CC(=O)N[C@H]1CC(=O)NCCCC[C@@H](C(N)=O)NC(=O)[C@H](Cc2c[nH]c3ccccc23)NC(=O)[C@@H](CCCN=C(N)N)NC(=O)[C@@H](Cc2ccccc2)NC(=O)[C@@H](Cc2c[nH]cn2)NC1=O
Lizard [4]
  Melanotropic activity: 1

## NC(=O)[C@@H]1CCCCNC(=O)C[C@H](N)C(=O)N[C@@H](Cc2c[nH]cn2)C(=O)N[C@H](Cc2ccccc2)C(=O)N[C@@H](CCCN=C(N)N)C(=O)N[C@@H](Cc2c[nH]c3ccccc23)C(=O)N1
S91 [5]
  Melanotropic potency: 1

## CC(=O)N[C@H]1CC(=O)NCCCC[C@@H](C(N)=O)NC(=O)[C@H](Cc2c[nH]c3ccccc23)NC(=O)[C@H](CCCN=C(N)N)NC(=O)[C@@H](Cc2ccccc2)NC(=O)[C@H](Cc2c[nH]cn2)NC1=O
S91 [5]
  Melanotropic potency: 1
